Activity calls are given as the source filed them. The rule behind the calls is not given here.
Molecular target: Ubiquitin-conjugating enzyme E2 N (Homo sapiens) (UniProt P61088)
Experiment: NMR detection of UBE2N ligand binding – biophysical, purified protein (AID 1552)
Conditions: NMR binding to purified UBE2N

Sequence of Ubiquitin-conjugating enzyme E2 N (Homo sapiens) (P61088 whole entry, looked up): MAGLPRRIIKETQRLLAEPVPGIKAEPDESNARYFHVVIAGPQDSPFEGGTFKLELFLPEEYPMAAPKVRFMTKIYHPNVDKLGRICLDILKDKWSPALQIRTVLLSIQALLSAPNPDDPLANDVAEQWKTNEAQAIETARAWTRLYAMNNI

Row | SMILES | Kd
1 | c1ccc(SCc2nc(-c3ccncc3)no2)cc1 | > 4 mM (inactive)
2 | Cc1onc(-c2c(Cl)cccc2Cl)c1C(N)=O | > 4 mM (inactive)
3 | O=C1CNc2cc(C(=O)O)ccc2N1 | > 4 mM (inactive)
4 | COc1ccc2c(C)cc(=O)oc2c1 | > 4 mM (inactive)
5 | CN(C)CCNC(CC(=O)Nc1ccccc1)C(=O)O (stereo not given) | > 4 mM (inactive)
6 | O=C(CC1Nc2ccccc2NC1=O)Nc1ccc(O)cc1 (stereo not given) | > 4 mM (inactive)
7 | Cc1cc(C(=O)O)n[nH]1 | > 4 mM (inactive)
8 | O=c1cc(O)nc(SCc2ccccc2)[nH]1 | > 4 mM (inactive)
9 | NC(=O)NC1C=CS(=O)(=O)C1 (stereo not given) | > 4 mM (inactive)
10 | O=C(O)C(CO)c1ccccc1 (stereo not given) | > 4 mM (inactive)
11 | COc1cc2c(cc1OC)C(=O)OC2 | > 4 mM (inactive)
12 | NCC(=O)c1ccccc1 | > 4 mM (inactive)
13 | NCc1csc(-c2cccs2)n1 | > 4 mM (inactive)
14 | Nc1ccc(CN2CCS(=O)(=O)CC2)cc1 | > 4 mM (inactive)
15 | CN1CCC(N2CCN(C)CC2)CC1 | > 4 mM (inactive)
16 | COC1C(O)C(O[C@H]2CC[C@]3(C=O)C4C(CC[C@]3(O)C2)[C@@]2(O)CC[C@H](C3=CC(=O)OC3)[C@@]2(C)C[C@H]4OC(C)=O)OC(C)C1OC(C)=O (stereo not given in full) | > 4 mM (inactive)
17 | COCC(=O)N1CCCc2ccccc21 | > 4 mM (inactive)
18 | Cc1c(-c2ccccc2)[n+](=O)c(-c2ccco2)c(C)n1[O-] | > 4 mM (inactive)
19 | CC(=O)Nc1nc2c(s1)C(=O)NCCC2 | > 4 mM (inactive)
20 | O=c1nc(N2CCCCC2)nc2n1CCO2 | > 4 mM (inactive)
21 | CC(=O)O[C@H]1CC[C@@]2(C)C(=CC(=O)C3C4CCC(C(C)CCCC(C)C)[C@@]4(C)CCC32)C1 (stereo not given in full) | > 4 mM (inactive)
22 | CCn1cnc2sc(C(=O)O)c(C)c2c1=O | > 4 mM (inactive)
23 | CC12CN3CC(C)(CN(C1)C3c1cccs1)C2O (stereo not given) | > 4 mM (inactive)

Row | SMILES | Kd
24 | O=C(O)c1ccc(CN2CCCCC2)o1 | > 4 mM (inactive)
25 | c1cnc(N2CCSCC2)nc1 | > 4 mM (inactive)
26 | Cc1noc(C)c1CSc1nc2ccccc2[nH]1 | > 4 mM (inactive)
27 | CC(C)CCCC(C)[C@H]1CCC2C3CC[C@@H]4C[C@H](O)CC[C@]4(C)C3CC[C@@]21C (stereo not given in full) | > 4 mM (inactive)
28 | O=C(/C=C/c1ccco1)NC1=NCCS1 | > 4 mM (inactive)
29 | NC(=O)c1ccc(N2C(=O)CCC2=O)cc1Cl | > 4 mM (inactive)
30 | NC(=O)C1CCN(C(=S)Nc2ccccc2)CC1 | > 4 mM (inactive)
31 | CC(C)(O)[C@@H]1[C@H]2OC(=O)[C@@H]1[C@]1(O)C[C@H]3O[C@]34C(=O)O[C@H]2[C@]14C | > 4 mM (inactive)
32 | O=C1NC(=S)NC(=O)C1=Cc1ccncc1 | > 4 mM (inactive)
33 | Cc1c(N=CN(C)C)c(=O)n(-c2ccccc2)n1C | > 4 mM (inactive)
34 | CC(C)CCCC(C)[C@H]1CCC2C3CC[C@H]4CC(=O)CC[C@]4(C)C3CC[C@@]21C (stereo not given in full) | > 4 mM (inactive)
35 | CCC(C)C(=O)O[C@H]1[C@H](O)C2C(CN3CC(C)CCC3[C@@]2(C)O)C2C[C@]34O[C@]5(O)C(OC(=O)C(C)(O)CC)CC[C@@]3(C)C5C(OC(C)=O)[C@@H](OC(C)=O)C4[C@@]21O (stereo not given in full) | > 4 mM (inactive)
36 | C=C(C)C1CC=C(CO)CC1 (stereo not given) | > 4 mM (inactive)
37 | COc1cc2c(cc1OC)[C@@]13CCN4CC5=CCOC6CC(=O)N2C1[C@H]6[C@H]5C[C@H]43 (stereo not given in full) | > 4 mM (inactive)
38 | CCCCn1c(=O)cc(O)c2ccccc21 | > 4 mM (inactive)
39 | NC(=O)c1ccsc1NC(=O)c1cccnc1 | > 4 mM (inactive)
40 | Cc1ccc(CN2CCNC(=O)C2CC(=O)O)o1 (stereo not given) | > 4 mM (inactive)
41 | Cc1sc2nc(SC3CCOC3=O)[nH]c(=O)c2c1C (stereo not given) | > 4 mM (inactive)
42 | COc1cc(O)c2c(=O)c(O)c(-c3ccc(O)c(O)c3)oc2c1 | > 4 mM (inactive)
43 | CC[C@H]1CN2CCC1C[C@@H]2[C@@H](O)c1ccnc2ccc(OC)cc12 (stereo not given in full) | > 4 mM (inactive)
44 | CNCc1ccco1 | > 4 mM (inactive)
45 | Cc1cc(N)n(-c2ccccc2)n1 | > 4 mM (inactive)
46 | O=NN1C(=O)c2ccccc2C1=O | > 4 mM (inactive)

Row | SMILES | Kd
47 | Nc1nnc(-c2ccncc2)s1 | > 4 mM (inactive)
48 | COc1cc2c(cc1-c1coc3c4c(c(OC)cc3c1=O)OC(C)(C)C=C4)OCO2 | > 4 mM (inactive)
49 | NC(=O)c1cc(Cl)c(C(N)=O)cc1Cl | > 4 mM (inactive)
50 | COc1ccccc1-c1noc(-c2ccncc2)n1 | > 4 mM (inactive)
51 | CN1CCN(S(=O)(=O)c2ccc(=O)[nH]c2)CC1 | > 4 mM (inactive)
52 | O=C1CC[C@]23/C=C/C(=O)NCCCCNCCCNC(=O)/C=C/c4ccc(c2c4)O[C@@H]3C1 | > 4 mM (inactive)
53 | CCOC(=O)c1cnn2ccccc12 | > 4 mM (inactive)
54 | O=C(O)Cc1n[nH]c(=O)c2ccccc12 | > 4 mM (inactive)
55 | COC(=O)/C(=C1\OC(=O)C(c2ccccc2)C1=O)c1ccccc1 (stereo not given) | > 4 mM (inactive)
56 | COc1cc(OC)cc(-c2nc(N)n[nH]2)c1 | > 4 mM (inactive)
57 | CN1CCN(C(=S)c2ccc(N(C)C)cc2)CC1 | > 4 mM (inactive)
58 | Nc1nc(O)c(C2=c3cc(Cl)ccc3=NC2=O)s1 | > 4 mM (inactive)
59 | O=C(O)c1cc(=O)[nH]c2ccccc12 | > 4 mM (inactive)
60 | O=C(NCc1cccnc1)c1ccccn1 | > 4 mM (inactive)
61 | Cc1n[nH]c(=S)n(/N=C/c2cccs2)c1=O | > 4 mM (inactive)
62 | O=[N+]([O-])c1cccc(CN2CCC(O)CC2)c1 | > 4 mM (inactive)
63 | Cc1nc(-c2ccc(CO)s2)cs1 | > 4 mM (inactive)
64 | O=C(CC1NCCNC1=O)Nc1ccccc1 (stereo not given) | > 4 mM (inactive)
65 | COc1ccc(-c2cc(=O)c3c(OC)c(OC)c(OC)c(OC)c3o2)cc1 | > 4 mM (inactive)
66 | CC1SC(=NC(=O)c2ccco2)NC1=O (stereo not given) | > 4 mM (inactive)
67 | Cn1c(=O)n(C)c2cc(C(N)=O)ccc21 | > 4 mM (inactive)
68 | O=C(NCc1ccccn1)c1ccc(Cl)cc1Cl | > 4 mM (inactive)
69 | Nc1ccccc1-c1nc2ccccc2[nH]1 | > 4 mM (inactive)

Row | SMILES | Kd
70 | CC(=O)Nc1cc(N2C(=O)C=CC2=O)ccc1Cl | > 4 mM (inactive)
71 | O=C(NCc1ccccc1Br)c1ccco1 | > 4 mM (inactive)
72 | Cc1ccc(N2C(=O)CCC2=O)cc1 | > 4 mM (inactive)
73 | C#CCCCCCCCCCCCC(=O)CC(O)COC(C)=O (stereo not given) | > 4 mM (inactive)
74 | Cn1ncc2c(=O)n(CC(=O)c3ccccc3)cnc21 | > 4 mM (inactive)
75 | C=CC(C1=CC(=O)C(OC)=CC1=O)c1ccc(O)cc1 (stereo not given) | > 4 mM (inactive)
76 | Cn1c(O)c(/C=C2\C=CC=N2)c(=O)[nH]c1=O | > 4 mM (inactive)
77 | Cc1nc2nc(Cc3ccccc3)[nH]n2c(=O)c1Cl | > 4 mM (inactive)
78 | COc1ccc2c(c1OC)C(=O)N(c1ncn[nH]1)C2 | > 4 mM (inactive)
79 | c1ccc2[nH]c(CCn3cncn3)nc2c1 | > 4 mM (inactive)
80 | COc1ccc(C(C)=O)c(O)c1 | > 4 mM (inactive)
81 | COc1ccc(C(=O)CC(=O)O)c2c1C=CC(C)(C)O2 | > 4 mM (inactive)
82 | CCOC(=O)c1c(C)[nH]c2ccc(O)cc12 | > 4 mM (inactive)
83 | CCN1C[C@@]2(COC)C3[C@@H](OC)[C@H]4[C@@H]1[C@]3(C(OC)C[C@H]2O)C1C[C@@]2(O)[C@H](OC(=O)c3ccccc3)C1[C@]4(OC(C)=O)[C@@H](O)[C@@H]2OC (stereo not given in full) | > 4 mM (inactive)
84 | COC(=O)[C@@H]1OC(=O)C2OC23[C@@]1(C)CCC1[C@]2(C)C(C[C@H](O)[C@]13C)C(C)(C)[C@H](OC(C)=O)C[C@@H]2OC(C)=O (stereo not given in full) | > 4 mM (inactive)
85 | CC(C)=NNC(=O)C(=O)NC(C)(C)C | > 4 mM (inactive)
86 | Nc1cccc(F)c1-c1ncon1 | > 4 mM (inactive)
87 | NC(=O)CCn1cnc2ccccc21 | > 4 mM (inactive)
88 | COc1ccc2c(c1)O[C@@H]1COc3cc(OC)c(OC)cc3[C@@H]1C2=O | > 4 mM (inactive)
89 | NS(=O)(=O)c1ccc(NC(=S)NC2CC2)cc1 | > 4 mM (inactive)
90 | Cn1cnc2nc3n(c2c1=O)CCC3 | > 4 mM (inactive)
91 | CNC(C)[C@H](O)c1ccccc1 (stereo not given in full) | > 4 mM (inactive)
92 | COc1cccc(O)c1O | > 4 mM (inactive)

Row | SMILES | Kd
93 | COc1ccc2nc(N)sc2n1 | > 4 mM (inactive)
94 | CC1(C)CC2(C)N(N)C(=O)CN2C(=S)N1 (stereo not given) | > 4 mM (inactive)
95 | COc1ccc(NC(=O)C2CC(=O)N=C(N)S2)cc1 (stereo not given) | > 4 mM (inactive)
96 | C/C=C(\C)C(=O)O[C@@H]1c2c(ccc3ccc(=O)oc23)OC(C)(C)[C@@H]1OC(C)=O | > 4 mM (inactive)
97 | COCC(=O)Nc1ccc(F)cc1F | > 4 mM (inactive)
98 | CCC(=O)Nc1ccccc1NC(C)=O | > 4 mM (inactive)
99 | O=C1CNCc2[nH]c3ccccc3c2N1c1ccccc1 | > 4 mM (inactive)
100 | O=C(Nc1ccccc1)N1CCOCC1 | > 4 mM (inactive)
101 | CN1CCN(C(=O)/C=C\C(=O)O)CC1 | > 4 mM (inactive)
102 | Nn1c(CN2CCCCC2)nc2ccccc2c1=O | > 4 mM (inactive)
103 | CN1C2CC(OC(=O)[C@H](CO)c3ccccc3)C[C@H]1[C@H]1OC21 (stereo not given in full) | > 4 mM (inactive)
104 | NCc1cc2ccccc2s1 | > 4 mM (inactive)
105 | CN1CCN(CC(O)c2ccccc2)CC1 (stereo not given) | > 4 mM (inactive)
106 | CC1=NCCc2c1[nH]c1cc(O)ccc21 | > 4 mM (inactive)
107 | O=C(O)CCCC(=O)Nc1nccs1 | > 4 mM (inactive)
108 | N#Cc1cnn(-c2ccc(Cl)cc2)c1N | > 4 mM (inactive)
109 | COc1cc2nc(-c3cccs3)oc(=O)c2cc1OC | > 4 mM (inactive)
110 | CC(CC(O)C1OC1(C)C)[C@@H]1CCC2(C)C3=CCC4C(C)(C)C(=O)CCC4(C)C3CC[C@@]12C (stereo not given in full) | > 4 mM (inactive)
111 | N=c1n(N)c2ccccc2n1CCO | > 4 mM (inactive)
112 | CC(=O)Nc1cc(C(F)(F)F)ccc1N1CCOCC1 | > 4 mM (inactive)
113 | COC1C=CC23c4cc5c(cc4CN(CC2O)[C@@H]3C1)OCO5 (stereo not given in full) | > 4 mM (inactive)
114 | Cc1nc(N2CCOCC2)[nH]c(=O)c1C | > 4 mM (inactive)
115 | Cc1ccc(S(=O)(=O)CC(N)=O)cc1 | > 4 mM (inactive)

Reference: PubChem BioAssay AID1552 (Sanford-Burnham Center for Chemical Genomics, 2009)
